# Oligonucleotides are written 5' to 3', each unit as a sugar letter and its base; * is a phosphorothioate linkage, no mark a phosphodiester; rarer units and linkages stand in square brackets, end groups in braces. Plain capitals give the bases only. e = 2'-O-(2-methoxyethyl) (MOE); [5mC] = 5-methylcytosine
# Assays:
# Format in all cases: cell-based, human
# [1] = test system: IKBKAP mRNA in GM04899 fibroblasts; test: Exon 20 inclusion in FD patient skin fibroblast line GM04899 (RT-PCR); conditions: GM04899, kinetin treatment for 3 days, concentration not given; relative to IMR90 cells (100%)
# Method: To investigate the effect of ISIS 421992 on patient-derived fibroblasts, the patient skin fibroblast line GM04899 (Coriell Cell Repository) was utilized. The cell line was derived from an individual homozygous for the major FD mutation.
# GM04899 was cultured in minimal essential medium (Invitrogen) supplemented with non-essential amino acids (Invitrogen) and 20% (v/v) fetal bovine serum. The cells were grown to 40-50% confluence in 10-cm dishes. Cells were transfected with 2 nM, 5 nM, 25 nM, or 125 nM concentrations of ISIS 421992 using 12 μL Lipofectamine 2000 transfection reagent (Invitrogen). Two days later, cDNA synthesized from total RNA extracted from HEK-293 cells was amplified using the forward primer pCDNAF and reverse primer sequence IKAP21R4 to assay the splicing pattern of expressed RNAs by RT-PCR. To calculate exon 20 inclusion levels, the PCR amplicons were labeled with α^32P-dCTP. The PCR products were then separated by native PAGE, followed by phosphorimage analysis. The band intensities were quantified and values were normalized for the G+C content according to the DNA sequence. Multiple lanes for each condition represent independent experiments.
# A batch of cells was treated with solvent (NaOH) only of the kinetin solution as a control. RNA from IMR90, a wild-type normal diploid lung fibroblast cell line was used as positive control. The results are expressed as percent inclusion of exon 20 compared to the exon 20 inclusion (100%) of IKBKAP mRNA in IMR90 cells.
# [2] = test system: IKAP protein; test: IKAP protein levels in GM04899 fibroblasts (SDS-PAGE, anti-IKAP antibody, band intensity)
# Method: Protein samples were obtained by Trizol extraction and separated by SDS-PAGE. The bands were transferred onto a nitrocellulose membrane and probed with an anti-IKAP antibody (abcam #ab56362) (1:1,000 dilution in 5% milk in TBST) for 12 hrs. The membrane was washed 5 times with TBST for 5 min each and then probed with secondary antibody 800 nm LiCor (1:5,000 in 5% milk in TBST) for 1 hr in the dark. The membrane was subsequently washed 5 times with TBST for 5 min each. The bands were then exposed at 800 nm and band intensity was quantified using an Odyssey (LiCor) instrument. The results are presented in Table 4 as percent increase in band intensity compared to the control oligonucleotide-treated bands.
# [3] = test system: IKBKAP pre-mRNA (mt19-21 minigene); test: Exon 20 inclusion in HEK-293 cells harboring the mt19-21 IKBKAP minigene (RT-PCR); conditions: HEK-293 with mt19-21 minigene; for effect on exon 20 inclusion/skipping, in words: 0.007 nmol oligonucleotide; for % inclusion (exon 20): 0.007 nmol oligonucleotide by electroporation, RT-PCR two days later
# Method: Antisense oligonucleotides were designed targeting a human IKBKAP nucleic acid and were tested for their effects on IKBKAP pre-mRNA in vitro. Together, the overlapping antisense oligonucleotides spanned the entire 74-nucleotide region of the IKBKAP exon 20 sequence, as well as the 100-nucleotide intronic regions immediately upstream and downstream of exon 20. The antisense oligonucleotides are presented in Table 1, and were designed as uniform 2′-O-methoxyethyl ribose (MOE) oligonucleotides with phosphate backbones. Each oligonucleotide is 15 nucleosides in length. All cytosine residues throughout the oligonucleotide are 5-methylcytosines. ‘Start Site’ indicates the 5′-most nucleoside to which the oligonucleotide is targeted in the human gene sequence. “Stop site” indicates the 3′-most nucleoside to which the oligonucleotide is targeted in the human gene sequence. Each oligonucleotide listed in Table 1 is targeted to the human IKBKAP genomic sequence (the complement of GENBANK Accession No NT_008470.16 truncated from nucleotides 13290828 to Ser. No. 13/358,424, designated herein as SEQ ID NO: 1). ISIS 414161 has one mismatch with SEQ ID NO: 1.
# Cultured HEK-293 cells harboring the mt19-21 minigene vector construct at a density of 7×10^5 cells per well were transfected using electroporation (Gene Pulsar II apparatus, Bio-Rad) with 0.007 nmol antisense oligonucleotide, as previously described (Hua, Y., et al., 2007. PLoS Biol 5:e73). […] These oligonucleotides served as controls for non-specific effects of uniform MOE oligonucleotides with phosphate backbones. Cells harboring the wt19-21 minigene and the mt19-21 minigene alone were also cultured and were used as controls for exon 20 inclusion levels. Two days later, cDNA synthesized from total RNA extracted from HEK-293 cells was amplified using the forward primer pCDNAF and reverse primer sequence IKAP21R4 to assay the splicing pattern of expressed RNAs by RT-PCR. To calculate exon 20 inclusion levels, the PCR amplicons were labeled with α^32P-dCTP. The PCR products were then separated by native PAGE, followed by phosphorimage analysis on a FUJIFILM FLA-5100 instrument (Fuji Medical Systems USA Inc.). The band intensities were quantified using Multi Gauge software Version 2.3 (FUJIFILM), and values were normalized for the G+C content according to the DNA sequence.
# Treatment with antisense oligonucleotides targeting the 3′ and 5′ splice sites caused increased skipping of exon 20.
# Additional oligonucleotides were designed targeting the first 30-nucleotide stretch of ISS-40. These oligonucleotides were designed by choosing sequences shifted in one nucleotide increments upstream and downstream (i.e., a “microwalk”) of ISS-40, starting from the +6 position in exon 20. The antisense oligonucleotides are presented in Table 2 and FIG. 4D, and were designed as uniform 2′-O-methoxyethyl ribose (MOE) oligonucleotides with phosphate backbones. Each oligonucleotide is 20 nucleosides in length. All cytosine residues throughout the oligonucleotide are 5-methylcytosines. ‘Start Site’ indicates the 5′-most nucleoside to which the oligonucleotide is targeted in the human gene sequence. “Stop site” indicates the 3′-most nucleoside to which the oligonucleotide is targeted in the human gene sequence. Each oligonucleotide listed in Table 2 is targeted to intron 20 of the human IKBKAP genomic sequence (the complement of GENBANK Accession No NT_008470.16 truncated from nucleotides 13290828 to Ser. No. 13/358,424, designated herein as SEQ ID NO: 1). These oligonucleotides were tested in vitro.
# Cultured HEK-293 cells harboring the mt19-21 minigene vector construct at a density of 7×10^5 cells per well were transfected using electroporation (Gene Pulsar II apparatus, Bio-Rad) with 0.007 nmol antisense oligonucleotide, as previously described (Hua, Y., et al., 2007. PLoS Biol 5:e73). […]
Compound,% inclusion (exon 20) ([3]; Table 1) [%],other results
"c1coc(CNc2ncnc3nc[nH]c23)c1 [kinetin, 6-furfurylaminopurine, reference compound]",,"% inclusion of exon 20 [1]: 98%; IKAP protein levels, in words ([2]; GM04899, kinetin, under these conditions): did not increase IKAP protein levels; Percent increase in protein band intensity (IKAP) ([2]; GM04899, kinetin-treated, compared to control oligonucleotide-treated bands): 11%"
"ISIS 414135: uniform 2′-MOE 15-mer, phosphate backbone; CAGGATACACCATTT, SEQ ID NO 14, intron 19 (e[5mC]eAeGeGeAeTeAe[5mC]eAe[5mC]e[5mC]eAeTeTeT; splice-switching)",46,"effect on exon 20 inclusion/skipping, in words [3]: positive effect on exon 20 inclusion"
"ISIS 414141: uniform 2′-MOE 15-mer, phosphate backbone; TTTTAATTAAGTAGA, SEQ ID NO 20, intron 19 (eTeTeTeTeAeAeTeTeAeAeGeTeAeGeA; splice-switching)",24,
"ISIS 414149: uniform 2′-MOE 15-mer, phosphate backbone; CAACTTCTAAGTTTC, SEQ ID NO 28, exon 20 (e[5mC]eAeAe[5mC]eTeTe[5mC]eTeAeAeGeTeTeTe[5mC]; splice-switching)",20,
"ISIS 421997: uniform 2′-MOE 20-mer, phosphate backbone; AACTAGTCGCAAACAGTACA, SEQ ID NO 66, intron 20 (eAeAe[5mC]eTeAeGeTe[5mC]eGe[5mC]eAeAeAe[5mC]eAeGeTeAe[5mC]eA; splice-switching)",,% inclusion (exon 20) ([3]; Table 2 (microwalk experiment)): 81%
"ISIS 414168: uniform 2′-MOE 15-mer, phosphate backbone; GTCTTCACACATAAA, SEQ ID NO 47, intron 20 (eGeTe[5mC]eTeTe[5mC]eAe[5mC]eAe[5mC]eAeTeAeAeA; splice-switching)",17,"effect on exon 20 inclusion/skipping, in words [3]: significantly decreased the levels of the included RNA isoform"
"ISIS 414148: uniform 2′-MOE 15-mer, phosphate backbone; TCTAAGTTTCCCCTT, SEQ ID NO 27, exon 20 (eTe[5mC]eTeAeAeGeTeTeTe[5mC]e[5mC]e[5mC]e[5mC]eTeT; splice-switching)",7,
"ISIS 414173: uniform 2′-MOE 15-mer, phosphate backbone; TCGAAATTGTAATAA, SEQ ID NO 52, intron 20 (eTe[5mC]eGeAeAeAeTeTeGeTeAeAeTeAeA; splice-switching)",31,

# From patent US11066668B2, “Compositions and methods for modulation of IKBKAP splicing” (Ionis Pharmaceuticals, Inc., priority 2012, dated 2021)
